{"source": "paper PMC7465669", "about": "“Screening of Heteroaromatic Scaffolds against Cystathionine Beta-Synthase Enables Identification of Substituted Pyrazolo[3,4-c]Pyridines as Potent and Selective Orthosteric Inhibitors” (Molecules, 2020)", "target": "T1, cystathionine β-synthase (CBS) (Homo sapiens, UniProt P35520)", "T1 construct": "full-length human CBS, GST-fusion", "T1 sequence (P35520 1-551)": "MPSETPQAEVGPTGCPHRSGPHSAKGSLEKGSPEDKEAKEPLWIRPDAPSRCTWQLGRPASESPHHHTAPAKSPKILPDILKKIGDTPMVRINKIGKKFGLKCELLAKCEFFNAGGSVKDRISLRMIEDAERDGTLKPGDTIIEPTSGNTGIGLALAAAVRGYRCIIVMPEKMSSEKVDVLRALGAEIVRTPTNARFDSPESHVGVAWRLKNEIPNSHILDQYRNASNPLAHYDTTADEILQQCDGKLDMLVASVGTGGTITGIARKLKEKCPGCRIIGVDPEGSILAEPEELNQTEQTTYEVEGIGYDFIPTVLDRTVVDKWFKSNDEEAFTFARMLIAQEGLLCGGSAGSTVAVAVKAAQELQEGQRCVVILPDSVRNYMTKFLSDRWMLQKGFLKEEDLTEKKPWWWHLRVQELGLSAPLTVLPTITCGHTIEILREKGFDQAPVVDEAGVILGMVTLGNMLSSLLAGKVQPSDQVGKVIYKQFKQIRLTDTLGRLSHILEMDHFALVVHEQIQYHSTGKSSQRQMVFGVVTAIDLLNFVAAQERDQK", "test": "methylene blue H2S assay, recombinant enzyme; confirmed by AzMC assay (IC50 […])", "type": "biochemical", "data": [{"smiles": "COc1ccc(Cn2ncc3cc(Nc4ccc(N5CCN(C)CC5)cc4)nc(N4CCN(C)CC4)c32)cc1", "note": "[compound 1, 1]", "values": [{"measurement": "IC50", "value": 11, "unit": "µM"}]}]}
